Usually Kd stands for the equilibrium constant for the complex coming apart. Read a high Kd as weaker binding.

Consider three molecules from paper PMC7604503, “Cyclic peptides can engage a single binding pocket through highly divergent modes” (Proceedings of the National Academy of Sciences of the …, 2020).

One test has as its target T1, WDR9(2) (Homo sapiens, UniProt Q9NSI6).
T1 construct: WDR9(2); purchased Eurofins DiscoverX (BROMOscan, BromoMAX)
The experiment in a line: BROMOscan competition binding assay (BromoMAX, Eurofins DiscoverX). The conditions noted are these: for Percent Control WDR9(2): compound concentration 1000 nM, lower percentage control = stronger affinity.

The target of another test is T2, BAZ2A (Homo sapiens, UniProt Q9UIF9).
T2 construct: purchased Eurofins DiscoverX (BROMOscan, BromoMAX)
T2 sequence (Q9UIF9 whole entry): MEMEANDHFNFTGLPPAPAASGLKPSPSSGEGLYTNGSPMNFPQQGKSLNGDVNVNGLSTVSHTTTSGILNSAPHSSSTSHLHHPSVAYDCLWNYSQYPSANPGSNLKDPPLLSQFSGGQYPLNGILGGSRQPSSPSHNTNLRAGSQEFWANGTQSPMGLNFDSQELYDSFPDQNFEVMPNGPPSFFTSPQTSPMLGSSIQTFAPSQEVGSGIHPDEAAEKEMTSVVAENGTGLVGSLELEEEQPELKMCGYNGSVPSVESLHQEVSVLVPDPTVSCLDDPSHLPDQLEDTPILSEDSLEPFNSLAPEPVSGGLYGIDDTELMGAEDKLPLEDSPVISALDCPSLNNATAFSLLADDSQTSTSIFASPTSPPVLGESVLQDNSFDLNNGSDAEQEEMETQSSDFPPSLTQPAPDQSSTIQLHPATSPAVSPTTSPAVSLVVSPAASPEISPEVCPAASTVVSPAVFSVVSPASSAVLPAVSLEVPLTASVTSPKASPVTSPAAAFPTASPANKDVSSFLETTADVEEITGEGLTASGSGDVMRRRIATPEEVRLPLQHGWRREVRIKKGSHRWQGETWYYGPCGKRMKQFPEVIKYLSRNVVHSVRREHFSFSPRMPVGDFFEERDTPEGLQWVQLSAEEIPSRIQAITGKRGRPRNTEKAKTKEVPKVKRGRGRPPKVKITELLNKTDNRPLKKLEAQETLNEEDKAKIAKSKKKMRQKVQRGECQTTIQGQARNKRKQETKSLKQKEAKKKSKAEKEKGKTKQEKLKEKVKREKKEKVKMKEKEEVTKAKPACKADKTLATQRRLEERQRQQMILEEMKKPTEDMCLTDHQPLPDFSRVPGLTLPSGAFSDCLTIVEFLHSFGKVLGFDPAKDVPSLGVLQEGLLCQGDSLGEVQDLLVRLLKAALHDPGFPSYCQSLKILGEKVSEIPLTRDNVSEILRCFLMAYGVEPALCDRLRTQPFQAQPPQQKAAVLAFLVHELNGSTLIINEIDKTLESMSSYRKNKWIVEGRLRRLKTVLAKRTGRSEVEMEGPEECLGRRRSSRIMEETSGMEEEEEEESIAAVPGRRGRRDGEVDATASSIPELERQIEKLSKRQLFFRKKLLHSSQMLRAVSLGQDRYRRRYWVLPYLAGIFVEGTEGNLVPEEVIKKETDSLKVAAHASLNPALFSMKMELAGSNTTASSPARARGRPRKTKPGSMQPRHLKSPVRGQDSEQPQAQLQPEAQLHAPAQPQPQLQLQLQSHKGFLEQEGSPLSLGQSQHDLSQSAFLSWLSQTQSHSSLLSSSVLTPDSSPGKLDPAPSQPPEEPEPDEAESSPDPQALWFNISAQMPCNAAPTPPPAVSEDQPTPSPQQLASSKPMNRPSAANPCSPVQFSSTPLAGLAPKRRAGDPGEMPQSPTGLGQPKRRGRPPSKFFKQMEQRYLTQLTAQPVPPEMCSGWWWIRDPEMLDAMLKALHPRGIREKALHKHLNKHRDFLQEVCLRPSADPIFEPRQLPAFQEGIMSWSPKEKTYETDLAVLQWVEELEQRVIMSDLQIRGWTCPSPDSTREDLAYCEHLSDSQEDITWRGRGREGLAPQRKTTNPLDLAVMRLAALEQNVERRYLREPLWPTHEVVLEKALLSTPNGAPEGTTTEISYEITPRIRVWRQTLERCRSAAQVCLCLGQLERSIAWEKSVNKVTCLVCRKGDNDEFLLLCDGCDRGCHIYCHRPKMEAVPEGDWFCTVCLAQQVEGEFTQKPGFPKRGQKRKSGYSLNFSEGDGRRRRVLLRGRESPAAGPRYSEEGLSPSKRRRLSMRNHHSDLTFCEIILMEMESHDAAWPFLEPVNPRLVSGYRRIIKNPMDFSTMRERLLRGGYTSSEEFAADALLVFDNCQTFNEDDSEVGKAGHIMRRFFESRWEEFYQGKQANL
The description is as above. The conditions noted are these: for Percent Control BAZ2A: compound concentration 1000 nM, lower percentage control = stronger affinity.

Another test deals with T3, BRD4(1) (Homo sapiens, UniProt O60885).
T3 construct: BRD4(1); purchased Eurofins DiscoverX (BROMOscan, BromoMAX)
The description is as above. The conditions noted are these: for Percent Control BRD4(1): compound concentration 1000 nM, lower percentage control = stronger affinity.

The target in another test is T4, BRD2(2) (Homo sapiens, UniProt P25440).
T4 construct: BRD2(2); purchased Eurofins DiscoverX (BROMOscan, BromoMAX)
T4 sequence (P25440 344-455 limits assumed): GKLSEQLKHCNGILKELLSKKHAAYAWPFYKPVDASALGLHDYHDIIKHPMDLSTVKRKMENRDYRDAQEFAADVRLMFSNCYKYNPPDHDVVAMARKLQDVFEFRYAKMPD
The test is described as above. As to conditions: for Percent Control BRD2(2): compound concentration 1000 nM, lower percentage control = stronger affinity.

Another test concerns the target T5, BRD2(1) (Homo sapiens, UniProt P25440).
T5 construct: BRD2(1); purchased Eurofins DiscoverX (BROMOscan, BromoMAX)
Described as above. The conditions noted are these: for Percent Control BRD2(1): compound concentration 1000 nM, lower percentage control = stronger affinity.

For the next test, the target named is T6, BRD4-BD1 (Homo sapiens, UniProt O60885).
T6 construct: BRD4 (BD1: 42-168; BD2: 348-464); Avi tag (biotinylated); made in house; host or cells: E. coli Rosetta2(DE3)
Put plainly: SPR binding of peptides to immobilised biotinylated BET bromodomain. Here is the method:
(§1) We next assessed the ability of each of the three lead peptides to bind BRD3-BD1. […] To assess selectivity for other BET BDs, we used SPR to determine the binding affinity of each peptide toward the remaining BDs from BRD2, BRD3, and BRD4 (Fig. 1B). […]
(§2) Peptides were synthesised as C-terminal amides using standard fluorenylmethyloxycarbonyl (Fmoc)-strategy solid-phase chemistry using a Syro I automated synthesiser (Biotage) and NovaPEG Rink Amide resin (Novabiochem). Couplings were performed with HBTU/HOBt (1:1) and 6 equivalents of each amino acid. Double couplings were performed for arginine residues.
(§3) Following the final amino acid coupling reaction, the Fmoc group was removed and resin incubated with N-(chloroacetoxy)succinimide (0.2 M in DMF, 1 h, RT). Resin was washed with DMF (5 times) and DCM (5 times) and dried in vacuo.
(§4) Linear peptides were cleaved from the resin by incubation (3 h, RT) with a trifluoroacetic acid (TFA) cleavage cocktail (TFA/2,2’-(ethylenedioxy)diethanethiol/triisopropyl silane/H2O (92.5:2.5:2.5:2.5)) before filtration, concentration in vacuo and precipitation with ice-cold diethyl ether. Crude peptides were washed with diethyl ether (5 times), dried and resuspended in DMSO. The pH was raised to >8 using triethylamine to allow cyclisation. Following incubation (1 h, RT), peptides were re-acidified with TFA for purification.
(§5) Crude peptides were purified by reverse-phase high-performance liquid chromatography using a Chromolith Prep column (Merck) on a Prominence LC-20AP system (Shimadzu) (Solvent A: 0.1% TFA in H2O, Solvent B: 0.1% TFA in acetonitrile) to >95% purity as determined by mass spectrometry (Fig. S17). Purified peptides were reconstituted in DMSO and concentrations determined from their absorbance at 280 nm in 5% DMSO using predicted extinction coefficients.
(§6) Surface plasmon resonance (SPR)
(§7) Measurements were conducted on a T200 or S200 (GE Healthcare) and data analysed using the Biacore Insight Evaluation Software. Experiments were performed at 4 °C in single cycle kinetics mode. Biotinylated BET bromodomains were immobilised on a CAP chip (GE Healthcare) with a […]
(§8) pH 7.5 was used as the running buffer. […]
(Surface plasmon resonance follows binding to a sensor surface in real time, without labels.)

The target in another test is T7, BRD2-BD1 (Homo sapiens, UniProt P25440).
T7 construct: human BRD2 (BD1: 65-194; BD2: 347-455); Avi tag (biotinylated); made in house; host or cells: E. coli BL21(DE3)
T7 sequence (P25440 65-194): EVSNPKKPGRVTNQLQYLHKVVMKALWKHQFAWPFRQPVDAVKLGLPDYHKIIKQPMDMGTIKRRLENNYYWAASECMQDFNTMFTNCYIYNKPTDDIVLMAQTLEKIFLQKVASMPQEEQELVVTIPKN
The test is described as above. As for the experimental part: as §1, §2, §3, §4, §5, §6, §7, §8

The next test addresses T8, BRD4-BD2 (Homo sapiens, UniProt O60885).
T8 construct: BRD4 (BD1: 42-168; BD2: 348-464); Avi tag (biotinylated); made in house; host or cells: E. coli BL21(DE3)
The description is as above. Here is the method: as §1, §2, §3, §4, §5, §6, §7, §8

A further test addresses T9, BRD3-BD2 (Homo sapiens, UniProt Q15059).
T9 construct: Avi tag (biotinylated); made in house; host or cells: E. coli BL21(DE3)
Described as above. Here is the method:
as §1, §2, §3, §4, §5, §6, §7, §8

[1] abbreviates: 4 C, geometric mean and SD of two to five measurements.
The mark [2] stands for this setting: gray boxed value: no reproducible signals observed at the concentrations used.

Structures are written as SMILES. Where a SMILES comes first, the peptide text is derived from it. Bridges are numbered along the chain shown (N, C = ends).

T9 sequence (Q15059 307-419): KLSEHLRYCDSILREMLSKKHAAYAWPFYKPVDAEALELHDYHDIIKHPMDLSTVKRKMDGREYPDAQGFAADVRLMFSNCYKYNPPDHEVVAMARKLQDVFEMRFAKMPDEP
T5 sequence (P25440 71-194 limits assumed): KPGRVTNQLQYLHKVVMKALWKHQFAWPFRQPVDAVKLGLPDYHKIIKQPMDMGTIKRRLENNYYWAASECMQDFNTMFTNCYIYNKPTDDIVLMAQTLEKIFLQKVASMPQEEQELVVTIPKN
T1 sequence (Q9NSI6 1307-1433 limits assumed): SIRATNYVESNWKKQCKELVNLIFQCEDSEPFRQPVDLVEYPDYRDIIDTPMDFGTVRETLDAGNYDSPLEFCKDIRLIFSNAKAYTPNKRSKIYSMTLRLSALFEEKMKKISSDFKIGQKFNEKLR

As for `CC[C@H](C)[C@@H]1NC(=O)[C@H]([C@@H](C)O)NC(=O)[C@H](CCCCN)NC(=O)[C@H](Cc2c[nH]c3ccccc23)NC(=O)CSC[C@@H](C(N)=O)NC(=O)[C@H](CCC(N)=O)NC(=O)[C@H](CCCCNC(C)=O)NC(=O)[C@H]([C@@H](C)O)NC(=O)[C@H](CCCNC(=N)N)NC(=O)[C@H](Cc2c[nH]c3ccccc23)NC(=O)[C@H]([C@@H](C)O)NC(=O)[C@H](CCCCNC(C)=O)NC(=O)CNC(=O)[C@H](CCCCNC(C)=O)NC1=O` [3.1B] ({CH2CO}-WKTIK(Ac)GK(Ac)TWRTK(Ac)QC-NH2; thioether N-14), the “Percent Control WDR9(2)” value on WDR9(2) came to 96%. Further, the “Percent Control BAZ2A” value at BAZ2A came to 15%. Also, on BRD4(1), the “Percent Control BRD4(1)” value worked out at 0.2%. For the same molecule, the “Percent Control BRD2(2)” value at BRD2(2) stood at 100%. Besides, the “Percent Control BRD2(1)” value on BRD2(1) was determined as 21%. The Kd was 0.55 ± 0.33 nM at BRD4-BD1 (setting [1]), 0.27 ± 0.16 nM on BRD2-BD1 (setting [1]), greater than 10000 nM on BRD4-BD2 (setting [2]) and greater than 10000 nM on BRD3-BD2 (setting [2]).

For `CC[C@H](C)[C@@H]1NC(=O)[C@H](Cc2c[nH]c3ccccc23)NC(=O)[C@H](Cc2c[nH]c3ccccc23)NC(=O)CSC[C@@H](C(N)=O)NC(=O)CNC(=O)[C@H](CCCCNC(C)=O)NC(=O)[C@H](CCCCN)NC(=O)[C@H](C(C)C)NC(=O)[C@H](CCCCNC(C)=O)NC(=O)[C@@H]2CCCN2C(=O)[C@H]([C@@H](C)CC)NC1=O` [3.1C] ({CH2CO}-WWIIPK(Ac)VKK(Ac)GC-NH2; thioether N-11), the “Percent Control WDR9(2)” value on WDR9(2) came out at 87%. Besides, the “Percent Control BAZ2A” value on BAZ2A is reported as 99%. The “Percent Control BRD4(1)” value at BRD4(1) was determined as 0%. The “Percent Control BRD2(2)” value at BRD2(2) turned out to be 0.35%. Moreover, the “Percent Control BRD2(1)” value on BRD2(1) is on record as 2.4%. Besides, the Kd worked out at 0.35 ± 0.1 nM at BRD4-BD1 (setting [1]), 0.19 ± 0.04 nM at BRD2-BD1 (setting [1]), 340 ± 350 nM on BRD4-BD2 (setting [1]) and 13 ± 12 nM at BRD3-BD2 (setting [1]).

On to `CC[C@H](C)[C@H](NC(=O)[C@H](CCCNC(=N)N)NC(=O)[C@H](CCCCNC(C)=O)NC(=O)[C@H](CCCNC(=N)N)NC(=O)[C@H](CC(C)C)NC(=O)[C@@H]1CSCC(=O)N[C@@H](Cc2c[nH]c3ccccc23)C(=O)N[C@@H](CCCCNC(C)=O)C(=O)NCC(=O)N[C@@H](Cc2ccc(O)cc2)C(=O)N[C@@H](CC(C)C)C(=O)N1)C(=O)N[C@@H](CCC(N)=O)C(=O)N[C@@H](CCCNC(=N)N)C(=O)N[C@H](C(=O)N[C@@H](Cc1ccc(O)cc1)C(=O)N[C@@H](CC(N)=O)C(N)=O)[C@@H](C)O` [4.2C] ({CH2CO}-WK(Ac)GYLCLRK(Ac)RIQRTYN-NH2; thioether N-6), for which the percent of control binding at 1 µM at WDR9(2) and at BRD2(1) was 85% in each case. In addition, the remaining binding at 1 µM at BAZ2A (read-out: Percent Control BAZ2A) was determined as 100%; at BRD4(1) (read-out: Percent Control BRD4(1)), 96%; on BRD2(2) (read-out: Percent Control BRD2(2)), 17%. Besides, the Kd was greater than 10000 nM on BRD4-BD1 (setting [2]), greater than 10000 nM at BRD2-BD1 (setting [2]), 36 ± 35 nM at BRD4-BD2 (setting [1]) and 110 ± 116 nM on BRD3-BD2 (setting [1]).
